# Results published in US20210170033A1, “NOVEL CONJUGATES OF A PHARMACEUTICAL AGENT AND A MOIETY CAPABLE OF BINDING TO A GLUCOSE SENSING PROTEIN” (SANOFI, priority 2017, published 2021).
# Like-named read-outs stand apart in the source and are kept apart here.
# Columns and labels:
# [1] = system: A2780 Human Carcinoma Cells; assay: Glucose displacement assay (ATP measurement, CellTiter-Glo); type: cell-based; settings: ATP measurement in A2780 cells, 0.5 μM rotenone
# Protocol: 2. Glucose Displacement Assay (ATP Measurement)
# 30,000 A2780 Human Carcinoma Cells are seeded per well in a Greiner 96-well plate. Cells are expanded and cultured in RPMI 1640 medium+GlutaMAX® with 10% FCS and 11 mM glucose, at 37° C. with 5% CO2. After 44 h, culture media is changed and washed once with PBS to starvation media consisting of RPMI 1640 medium with 1% FCS without glucose for 2 hours. Cells are then washed with KRB buffer, followed by incubation for 20 min at 37° C. of the treatment mix consisting of 60 μL KRB buffer/well and 10 μL of compound or DMSO 10×. 10 μl of rotenone is added to the mix to a final concentration of 0.5 μM. Cell plates are left for 2 min at room temperature. 20 μL of different glucose concentrations are added to the mix—typically 0.1 to 10 mM range—.
# Cells are incubated for another 15 min at 37° C., before measuring ATP with the CellTiter-Glo® Assay, under manufacturer's guidance, but without the equilibration step at room temperature for 30 min. In brief, 100 μl of Cell-Titer-Glo® Reagent is added to the wells containing already 100 μl of the previous reaction mix. Plates are mixed for 2 min at 800 rpm, followed by incubation at room temperature for 10 min to stabilize the luminescent signal. Luminescence is then recorded with the Tekan Ultra Evolution reader.
# [2] = system: A2780 cells; assay: Deoxy-glucose uptake assay in A2780 cells (14C 2-deoxy-D-glucose transport); type: cell-based; settings: Homo sapiens, 20 min; inhibition of 14C 2-deoxy-D-glucose transport into A2780 cells; 20 min compound incubation; read-out: IC50
# Summary of the method: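 Radiolabelled 2-deoxy-D-glucose transport over 20 min was scintillation-counted in A2780 cells, grown 48 h, after 20 min compound exposure in KRB. Untreated cells gave the 100% reference, with Cytochalasin B defining background. IC50 values were regressed from triplicate means across 7 or 14 concentrations.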
# [3] = 1 mM glucose, read-out: IC50 [μM] at 1 mM glucose
# [4] = 10 mM glucose, read-out: IC50 [μM] at 10 mM glucose
SMILES,"IC50 [1, 3]","IC50 [1, 4]",IC50 [2]
CCOC(=O)CCCn1cc(CCCn2c(COc3c(Cl)cc(C(=O)O[C@H]4[C@@H](OC)O[C@H](CO)[C@@H](O)[C@@H]4O)c(C)c3Cl)nc3ccccc32)nn1 [Example 310],0.17 µM,0.89 µM,400 nM
CO[C@H]1O[C@H](CO)[C@@H](O)[C@H](O)[C@H]1OC(=O)c1cc(Cl)c(OCc2cccc(NCCCC(=O)OC(C)(C)C)c2)c(Cl)c1C [Example 345],2.41 µM,6.59 µM,12400 nM
COC(=O)[C@@H](CCCCNC(=O)CCCCCNC(=O)CCCCCCCCC(=O)Nc1cccc(COc2cc(OC)c(C(=O)N[C@H]3[C@@H](OC)O[C@H](CO)[C@@H](O)[C@@H]3O)cc2Cl)c1)NC(=O)OC(C)(C)C [Example 472],5.9 µM,15.6 µM,1600 nM
COc1cc(OCc2cccc(NC(=O)CCCC(=O)OC(C)(C)C)c2)c(Cl)cc1C(=O)O[C@@H]1[C@@H](O)[C@@H](OC)O[C@H](CO)[C@H]1O [Example 364],3.88 µM,12.3 µM,4400 nM
CO[C@H]1O[C@H](CO)[C@@H](O)[C@H](O)[C@H]1OC(=O)c1cc(Cl)c(OCc2nc3ccccc3n2CCCc2cn(CCOCCOCC(=O)OC(C)(C)C)nn2)c(Cl)c1C [Example 311],0.12 µM,0.7 µM,400 nM
CO[C@H]1O[C@H](CO)[C@@H](O)[C@H](O)[C@H]1OC(=O)c1cc(Cl)c(OCc2cccc(NC(=O)CCCC(=O)OC(C)(C)C)c2)c(Cl)c1C [Example 351],0.55 µM,1.97 µM,800 nM
C#CCCCCCCn1c(COc2c(Cl)cc(C(=O)O[C@H]3[C@@H](OC)O[C@H](CO)[C@@H](O)[C@@H]3O)c(C)c2Cl)nc2ccccc21 [Example 321],0.56 µM,1.2 µM,200 nM
C#CCCC(=O)Nc1cccc(COc2c(Cl)cc(C(=O)O[C@H]3[C@@H](OC)O[C@H](CO)[C@@H](O)[C@@H]3O)c(C)c2Cl)c1 [Example 206],1.7 µM,> 10 µM,8400 nM
C#CCCCCCCCn1c(COc2c(Cl)cc(C(=O)O[C@H]3[C@@H](OC)O[C@H](CO)[C@@H](O)[C@@H]3O)c(C)c2Cl)nc2ccccc21 [Example 371],0.86 µM,1.44 µM,400 nM
CO[C@H]1O[C@H](CO)[C@@H](O)[C@H](O)[C@H]1NC(=O)c1cc(Cl)c(OCc2ccc(OCC(=O)OC(C)(C)C)cc2)c(Cl)c1C [Example 316],1.52 µM,> 33 µM,1600 nM
COc1c(C(=O)N[C@H]2[C@@H](OC)O[C@H](CO)[C@@H](O)[C@@H]2O)cc(Cl)c(OCc2cccc(CNC(=O)OC(C)(C)C)c2)c1Cl [Example 444],4 µM,8.4 µM,1600 nM
C#CCCCn1c(COc2c(Cl)cc(C(=O)N[C@H]3[C@@H](OC)O[C@H](CO)[C@@H](O)[C@@H]3O)c(C)c2Cl)nc2ccccc21 [Example 201],0.393 µM,2.4 µM,4500 nM
COC(=O)CCc1ccc(COc2cc(OC)c(C(=O)N[C@H]3[C@@H](OC)O[C@H](CO)[C@@H](O)[C@@H]3O)cc2Cl)cc1 [Example 356],3.68 µM,12.1 µM,2700 nM
COc1cc(OCc2cn3c(C)cccc3n2)c(Cl)cc1C(=O)O[C@H]1[C@@H](OC)O[C@H](CO)[C@@H](O)[C@@H]1O [Example 353],1.5 µM,6.07 µM,100 nM
COc1cc(OCc2ccccc2)c(Cl)cc1C(=O)O[C@H]1[C@@H](OC)O[C@H](CO)[C@@H](O)[C@@H]1O [Example 233],1.67 µM,21.1 µM,1100 nM
CCOC(=O)CCCCCn1cc(CCCn2c(COc3c(Cl)cc(C(=O)O[C@H]4[C@@H](OC)O[C@H](CO)[C@@H](O)[C@@H]4O)c(C)c3Cl)nc3ccccc32)nn1 [Example 309],0.17 µM,0.71 µM,300 nM
COC(=O)[C@H](CCCCNC(=O)CCCCCNC(=O)CCCCCCC(=O)Nc1cccc(COc2cc(OC)c(C(=O)N[C@H]3[C@@H](OC)O[C@H](CO)[C@@H](O)[C@@H]3O)cc2Cl)c1)NC(=O)OC(C)(C)C [Example 471],3.4 µM,8.6 µM,800 nM
CO[C@H]1O[C@H](CO)[C@@H](O)[C@H](O)[C@H]1NC(=O)c1cc(Cl)c(OCc2cccc(NC(=O)OC(C)(C)C)c2)c(Cl)c1C [Example 443],2 µM,8.9 µM,6000 nM
COc1cc(OCc2nc3ccccc3n2CCCCCCCCCCCC(=O)O)c(Cl)cc1C(=O)N[C@H]1[C@@H](OC)O[C@H](CO)[C@@H](O)[C@@H]1O [Example 469],2.4 µM,3.3 µM,1700 nM
COC(=O)[C@@H](N)CCC(=O)NCc1cccc(COc2c(Cl)cc(C(=O)O[C@H]3[C@@H](OC)O[C@H](CO)[C@@H](O)[C@@H]3O)c(C)c2Cl)c1 [Example 308],8.85 µM,> 33 µM,35800 nM
CO[C@H]1O[C@H](CO)[C@@H](O)[C@H](O)[C@H]1OC(=O)c1cc(Cl)c(OCc2cccc(NC(=O)CCC(=O)OC(C)(C)C)c2)c(Cl)c1C [Example 347],0.86 µM,5.28 µM,2800 nM
COc1cc(OCc2cccc(CNC(=O)OC(C)(C)C)c2)c(Cl)cc1C(=O)O[C@H]1[C@@H](OC)O[C@H](CO)[C@@H](O)[C@@H]1O [Example 361],1.93 µM,8.11 µM,800 nM
COc1cc(OCc2cccc(CNC(=O)OC(C)(C)C)c2)c(Cl)cc1C(=O)N[C@H]1[C@H](OC)O[C@H](CO)[C@@H](O)[C@@H]1O [Example 419],4.39 µM,11.6 µM,1100 nM
COc1cc(OCc2cccc(NC(=O)CCC(=O)OC(C)(C)C)c2)c(Cl)cc1C(=O)O[C@H]1[C@@H](OC)O[C@H](CO)[C@@H](O)[C@@H]1O [Example 375],1.41 µM,7.19 µM,1600 nM
COc1cc(C(=O)OC[C@H]2O[C@H](OC)[C@H](O)[C@@H](O)[C@@H]2O)cc(Cl)c1OCc1cccc(NC(=O)OC(C)(C)C)c1 [Example 20],12.7 µM,33.9 µM,28700 nM
COc1cc(OCc2cccc(NC(=O)CCCCCCC(=O)OC(C)(C)C)c2)c(Cl)cc1C(=O)O[C@H]1[C@@H](OC)O[C@H](CO)[C@@H](O)[C@@H]1O [Example 402],3.24 µM,7.35 µM,300 nM
CO[C@H]1O[C@H](CO)[C@@H](O)[C@H](O)[C@H]1OC(=O)c1cc(Cl)c(OCc2ccc(OCC(=O)OC(C)(C)C)cc2)c(Cl)c1C [Example 319],3 µM,8.03 µM,7400 nM
COc1cc(OCc2cccc(CNC(=O)CCCCCCC(=O)OC(C)(C)C)c2)c(Cl)cc1C(=O)O[C@H]1[C@@H](OC)O[C@H](CO)[C@@H](O)[C@@H]1O [Example 401],2.95 µM,7.81 µM,600 nM
COc1cc(OCc2ccccc2)c(Cl)cc1C(=O)N[C@H]1[C@@H](OC)O[C@H](CO)[C@@H](O)[C@@H]1O [Example 232],5.6 µM,> 33 µM,7300 nM
COC(=O)[C@H](CCCCNC(=O)CCCCCCC(=O)Nc1cccc(COc2cc(OC)c(C(=O)N[C@H]3[C@@H](OC)O[C@H](CO)[C@@H](O)[C@@H]3O)cc2Cl)c1)NC(=O)OC(C)(C)C [Example 441],3 µM,11.4 µM,2700 nM
